# According to patent US20230023559A1, “ARYLMETHYLENE HETEROCYCLIC COMPOUNDS AS KV1.3 POTASSIUM SHAKER CHANNEL BLOCKERS” (D. E. Shaw Research, LLC, priority 2019, published 2023):
# Legend:
# Kv1.3 potassium channel = target: T1, Kv1.3 potassium channel (Homo sapiens, UniProt P22001); assay: Kv1.3 potassium channel blocker activity, automated whole-cell patch clamp (Patchliner); assay type: cell-based; details: CHO-K1 cells stably expressing Kv1.3; whole cell current inhibition; read-out: Kv1.3_IC50
# T1 construct: expressed in transfected cells
# How it was run: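 CHO-K1 cells stably expressing Kv1.3, automated whole-cell patch clamp. Currents evoked by 100 ms steps from −90 mV holding to +40 mV at 0.1 Hz, sampled at 10 kHz unfiltered, P/4 leak subtraction; peak current inhibition measured, compound incubation ≤10 s between pulse trains.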
# hERG channel = hERG channel (Homo sapiens, UniProt Q12809); assay: hERG electrophysiology, automated whole-cell patch clamp (Patchliner)
# Sequence of hERG channel (Q12809 whole entry): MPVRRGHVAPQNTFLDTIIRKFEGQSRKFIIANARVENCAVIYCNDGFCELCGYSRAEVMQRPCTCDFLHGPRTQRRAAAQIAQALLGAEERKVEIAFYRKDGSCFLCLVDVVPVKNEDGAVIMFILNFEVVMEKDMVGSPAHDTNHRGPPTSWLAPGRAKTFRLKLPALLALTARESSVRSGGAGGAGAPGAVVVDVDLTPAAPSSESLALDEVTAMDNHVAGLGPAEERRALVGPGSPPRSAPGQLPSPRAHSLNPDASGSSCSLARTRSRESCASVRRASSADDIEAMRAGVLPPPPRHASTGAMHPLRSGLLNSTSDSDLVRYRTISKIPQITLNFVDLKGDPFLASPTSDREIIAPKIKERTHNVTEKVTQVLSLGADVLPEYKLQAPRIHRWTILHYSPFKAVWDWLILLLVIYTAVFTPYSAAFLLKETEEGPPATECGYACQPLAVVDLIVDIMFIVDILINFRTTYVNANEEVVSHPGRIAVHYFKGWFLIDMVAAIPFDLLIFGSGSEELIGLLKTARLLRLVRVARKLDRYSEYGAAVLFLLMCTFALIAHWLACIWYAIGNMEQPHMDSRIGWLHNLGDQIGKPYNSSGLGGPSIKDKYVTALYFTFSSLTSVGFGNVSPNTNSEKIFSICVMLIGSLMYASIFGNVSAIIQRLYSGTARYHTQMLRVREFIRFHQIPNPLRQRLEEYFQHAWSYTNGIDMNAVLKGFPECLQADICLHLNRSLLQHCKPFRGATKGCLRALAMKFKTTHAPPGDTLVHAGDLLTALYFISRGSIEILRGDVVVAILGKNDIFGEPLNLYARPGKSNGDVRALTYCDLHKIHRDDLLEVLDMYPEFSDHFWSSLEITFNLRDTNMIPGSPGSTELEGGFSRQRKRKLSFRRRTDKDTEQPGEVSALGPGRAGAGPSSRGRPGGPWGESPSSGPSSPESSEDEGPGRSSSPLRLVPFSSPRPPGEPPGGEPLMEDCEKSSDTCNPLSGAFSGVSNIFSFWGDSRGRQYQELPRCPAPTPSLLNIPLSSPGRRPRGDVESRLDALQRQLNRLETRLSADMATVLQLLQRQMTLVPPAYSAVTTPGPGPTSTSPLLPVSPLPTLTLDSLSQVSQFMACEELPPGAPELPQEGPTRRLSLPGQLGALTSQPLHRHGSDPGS
# T1 sequence (P22001 whole entry): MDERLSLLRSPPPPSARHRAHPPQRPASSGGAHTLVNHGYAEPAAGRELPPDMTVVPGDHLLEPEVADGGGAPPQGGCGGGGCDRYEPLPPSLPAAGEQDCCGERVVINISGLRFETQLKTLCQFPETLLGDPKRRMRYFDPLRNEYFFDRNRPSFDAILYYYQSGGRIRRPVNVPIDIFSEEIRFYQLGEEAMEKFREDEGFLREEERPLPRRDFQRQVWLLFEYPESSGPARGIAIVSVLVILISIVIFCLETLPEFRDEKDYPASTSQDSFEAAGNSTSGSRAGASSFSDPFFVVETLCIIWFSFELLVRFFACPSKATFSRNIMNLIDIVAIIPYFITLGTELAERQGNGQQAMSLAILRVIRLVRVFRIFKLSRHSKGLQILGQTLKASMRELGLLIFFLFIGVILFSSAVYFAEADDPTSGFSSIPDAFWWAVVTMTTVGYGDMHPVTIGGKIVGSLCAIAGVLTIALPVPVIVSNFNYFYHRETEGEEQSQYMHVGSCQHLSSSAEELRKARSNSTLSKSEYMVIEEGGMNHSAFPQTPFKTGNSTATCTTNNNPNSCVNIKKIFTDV
IC50 (Kv1.3 potassium channel) [nM],SMILES,IC50 (hERG channel) [µM]
< 10000,"CO[C@@H](CO)C(=O)N1CCC([C@@H](N)c2cc(Cl)c(Cl)cc2O)CC1 [Compound 185, (2S)-1-[4-[(R)-amino(4,5-dichloro-2-hydroxyphenyl)methyl]piperidin-1-yl]-3-hydroxy-2-methoxypropan-1-one trifluoroacetic acid]",> 30
< 500,"N[C@@H](c1cc(Cl)c(Cl)cc1O)C1CCN(C(=O)c2c[nH]c(=O)cn2)CC1 [Compound 186, (R)-5-(4-(amino(4,5-dichloro-2-hydroxyphenyl)methyl)piperidine-1-carbonyl) pyrazin-2(1H)-one]",> 30
< 10000,"N[C@@H](c1c(O)cc(Cl)c(Cl)c1Cl)C1CCN(C(=O)[C@H](O)CO)CC1 [Compound 188, (R)-1-(4-((R)-amino(2,3,4-trichloro-6-hydroxyphenyl)methyl)piperidin-1-yl)-2,3-dihydroxypropan-1-one Trifluoroacetic Acid]",> 30
< 500,"N[C@@H](c1cc2ccccc2cc1O)C1CCN(C(=O)[C@H](O)CO)CC1 [Compound 189, (2R)-1-[4-[(R)-amino(3-hydroxynaphthalen-2-yl)methyl]piperidin-1-yl]-2,3-dihydroxypropan-1-one Trifluoroacetic Acid]",> 30
< 500,"Cc1cc(O)c([C@H](N)C2CCN(C(=O)[C@H](O)CO)CC2)cc1Cl [Compound 190, (2R)-1-[4-[(R)-amino(5-chloro-2-hydroxy-4-methylphenyl)methyl]piperidin-1-yl]-2,3-dihydroxypropan-1-one Trifluoroacetic Acid]",> 30
< 10000,"N[C@@H](c1c(O)ccc2ccccc12)C1CCN(C(=O)[C@H](O)CO)CC1 [Compound 191, (2R)-1-[4-[(R)-amino(2-hydroxynaphthalen-1-yl)methyl]piperidin-1-yl]-2,3-dihydroxypropan-1-one Trifluoroacetic Acid]",> 30
< 500,"N[C@@H](c1cc(Cl)c(Cl)cc1O)C1CCN(C(=O)COC2COC2)CC1 [Compound 192, 1-[4-[(R)-amino(4,5-dichloro-2-hydroxyphenyl)methyl]piperidin-1-yl]-2-(oxetan-3-yloxy)ethan-1-one]",> 30
< 500,"N[C@@H](c1cc(Cl)c(Cl)cc1O)C1CCN(C(=O)[C@H]2COCCN2)CC1 [Compound 194, (4-((R)-amino(4,5-dichloro-2-hydroxyphenyl)methyl)piperidin-1-yl)((R)-morpholin-3-yl)methanone]",> 30
< 500,"N[C@@H](c1cc(Cl)c(Cl)cc1O)C1CCN(C(=O)[C@@H]2COCCN2)CC1 [Compound 195, (4-((R)-amino(4,5-dichloro-2-hydroxyphenyl)methyl)piperidin-1-yl)((S)-morpholin-3-yl)methanone]",> 30
< 10000,"CNC(c1cc(Cl)c(Cl)cc1O)C1CCN(C(=O)[C@H](O)CO)CC1 (stereo partly drawn) [Compound 196, (2R)-1-[4-[(4,5-dichloro-2-hydroxyphenyl)(methylamino)methyl]piperidin-1-yl]-2,3-dihydroxypropan-1-one]",> 30
< 10000,"COC[C@@H](O)C(=O)N1CCC([C@@H](N)c2cc(Cl)c(Cl)cc2O)CC1 [Compound 197, (2R)-1-[4-[(R)-amino(4,5-dichloro-2-hydroxyphenyl)methyl]piperidin-1-yl]-2-hydroxy-3-methoxypropan-1-one trifluoroacetic acid]",> 30
< 10000,"Cc1cc([C@H](N)C2CCN(C(=O)[C@H](O)CO)CC2)c(O)cc1Cl [Compound 198, (2R)-1-[4-[(R)-amino(4-chloro-2-hydroxy-5-methylphenyl)methyl]piperidin-1-yl]-2,3-dihydroxypropan-1-one]",> 30
< 500,"C[C@@H](O)[C@@H](N)C(=O)N1CCC([C@@H](N)c2cc(Cl)c(Cl)cc2O)CC1 [Compound 199, (2R,3R)-2-amino-1-[4-[(R)-amino(4,5-dichloro-2-hydroxyphenyl)methyl]piperidin-1-yl]-3-hydroxybutan-1-one trifluoroacetic acid]",> 30
< 10000,"CC(=O)N1CC(C(=O)N2CCC([C@@H](N)c3cc(Cl)c(Cl)cc3O)CC2)C1 [Compound 200, 1-(3-[4-[(R)-amino(4,5-dichloro-2-hydroxyphenyl)methyl]piperidine-1-carbonyl]azetidin-1-yl)ethan-1-one]",> 30
< 10000,"CC(O)(CO)C(=O)N1CCC([C@@H](N)c2cc(Cl)c(Cl)cc2O)CC1 (stereo partly drawn) [Compound 201, 1-[4-[(R)-amino(4,5-dichloro-2-hydroxyphenyl)methyl]piperidin-1-yl]-2,3-dihydroxy-2-methylpropan-1-one Trifluoroacetic Acid]",> 30
< 500,"Cn1cc(C(=O)N2CCC([C@@H](N)c3cc(Cl)c(Cl)cc3O)CC2)cn1 [Compound 203, (R)-(4-(amino(4,5-dichloro-2-hydroxyphenyl)methyl)piperidin-1-yl) (1-methyl-1H-pyrazol-4-yl)methanone]",< 30

IC50 (Kv1.3 potassium channel) [nM],SMILES,IC50 (hERG channel) [µM]
< 10000,"N[C@@H](c1cc(Cl)c(Cl)cc1O)C1CCN(C(=O)c2c[nH]c3ccccc23)CC1 [Compound 204, (R)-(4-(amino(4,5-dichloro-2-hydroxyphenyl)methyl)piperidin-1-yl)(1H-indol-3-yl)methanone trifluoroacetic acid]",< 30
< 500,"N[C@@H](c1cc(Cl)c(Cl)cc1O)C1CCN(C(=O)c2cnoc2)CC1 [Compound 205, 2-[(R)-amino[1-(1,2-oxazole-4-carbonyl)piperidin-4-yl]methyl]-4,5-dichlorophenol]",> 30
< 500,"NC(=O)C(=O)N1CCC([C@@H](N)c2cc(Cl)c(Cl)cc2O)CC1 [Compound 206, 2-[4-[(R)-amino(4,5-dichloro-2-hydroxyphenyl)methyl]piperidin-1-yl]-2-oxoacetamide trifluoroacetic acid]",> 30
< 500,"Cc1cc(O)c([C@H](N)C2CCN(C(=O)c3c[nH]c(=O)c(CO)c3)CC2)cc1Cl [Compound 207, (R)-5-(4-(amino (5-chloro-2-hydroxy-4-methylphenyl)methyl)piperidine-1-carbonyl)-3-(hydroxymethyl) pyridin-2(1H)-one]",> 30
< 500,"C[C@@H](O)[C@H](O)C(=O)N1CCC([C@@H](N)c2cc(Cl)c(Cl)cc2O)CC1 [Compound 208, 1-(4-((R)-amino(4,5-dichloro-2-hydroxyphenyl)methyl)piperidin-1-yl)-2,3-dihydroxybutan-1-one trifluoroacetic acid]",> 30
< 500,"N[C@@H](c1cc(Cl)c(Cl)cc1O)C1CCN(C(=O)NCCO)CC1 [Compound 209, 4-[(R)-amino(4,5-dichloro-2-hydroxyphenyl)methyl]-N-(2-hydroxyethyl)piperidine-1-carboxamide Trifluoroacetic Acid]",> 30
< 500,"Nc1[nH]ncc1C(=O)N1CCC([C@@H](N)c2cc(Cl)c(Cl)cc2O)CC1 [Compound 211, 2-[(R)-amino[1-(5-amino-1H-pyrazole-4-carbonyl)piperidin-4-yl]methyl]-4,5-dichlorophenol trifluoroacetic acid]",> 30
< 500,"N[C@@H](c1cc(Cl)c(Cl)cc1O)C1CCN(C(=O)C2CC(O)(CO)C2)CC1 (stereo partly drawn) [Compound 213, 2-[(R)-amino([1-[3-hydroxy-3-(hydroxymethyl)cyclobutane-carbonyl]piperidin-4-yl])methyl]-4,5-dichlorophenol trifluoroacetic acid]",> 30
< 10000,"CN1C(=O)CC[C@@H]1C(=O)N1CCC([C@@H](N)c2cc(Cl)c(Cl)cc2O)CC1 [Compound 216, (5R)-5-[4-[(R)-amino(4,5-dichloro-2-hydroxyphenyl)methyl]piperidine-1-carbonyl]-1-methylpyrrolidin-2-one]",> 30
< 500,"N[C@@H](c1cc(Cl)c(Cl)cc1O)C1CCN(C(=O)C2(O)CNC2)CC1 [Compound 219, 3-[4-[(R)-amino(4,5-dichloro-2-hydroxyphenyl)methyl]piperidine-1-carbonyl]azetidin-3-ol Trifluoroacetic Acid]",> 30
< 500,"N[C@@H](c1cc(Cl)c(Cl)cc1O)C1CCN(C(=O)N2CC(O)(CO)C2)CC1 [Compound 220, 1-[4-[(R)-amino(4,5-dichloro-2-hydroxyphenyl)methyl]piperidine-1-carbonyl]-3-(hydroxymethyl)azetidin-3-ol]",> 30
< 500,"N[C@@H](c1cc(Cl)c(Cl)cc1O)C1CCN(C(=O)C2CNC(=O)C2)CC1 (stereo partly drawn) [Compound 223, 4-[4-[(R)-amino(4,5-dichloro-2-hydroxyphenyl)methyl]piperidine-1-carbonyl] pyrrolidin-2-one trifluoroacetic acid]",> 30
< 500,"N[C@@H](c1cc(Cl)c(Cl)cc1O)C1CCN(C(=O)[C@@H]2CNC(=O)C2)CC1 [Compound 224, (4S)-4-[4-[(R)-amino(4,5-dichloro-2-hydroxyphenyl)methyl]piperidine-1-carbonyl] pyrrolidin-2-one trifluoroacetic acid]",> 30
< 500,"N[C@@H](c1cc(Cl)c(CF)cc1O)C1CCN(C(=O)[C@H](O)CO)CC1 [Compound 226, (2R)-1-[4-[(R)-amino[5-chloro-4-(fluoromethyl)-2-hydroxyphenyl]methyl]piperidin-1-yl]-2,3-dihydroxypropan-1-one Trifluoroacetic Acid]",> 30
< 500,"Cc1cc(O)c([C@H](N)C2CCN(C(=O)c3ccc(=O)[nH]c3)CC2)cc1Cl [Compound 228, 5-[4-[(R)-amino(5-chloro-2-hydroxy-4-methylphenyl)methyl]piperidine-1-carbonyl]-1H-pyridin-2-one]",> 30
